Values of other authors in US20050256112A1, “Combination of atypical antipsychotics and 5HT-1B receptor antagonists” (Pfizer Inc, priority 2004, published 2005).

Assays:
[1] = background statement
[2] = in some mammals; background statement
white blood cell counts = details: background statement

For `Cc1cc2c(s1)Nc1ccccc1N=C2N1CCN(C)CC1` [Olanzapine, 2-methyl-4-(4-methyl-1-piperazinyl)-10H-thieno [2,3-b][1,5] benzodiazepine], the weight gain ([1]; in some cases) is listed as “up to 1 pound per week”.
For `OCCOCCN1CCN(C2=Nc3ccccc3Sc3ccccc32)CC1` [Quetiapine, 5-[2-(4-dibenzo[b,f][1,4]thiazepin-11-yl-1-piperazinyl)ethyoxy]ethanol], the cataract formation [2] is listed as “cause cataract formation”.
For `Cc1nc2n(c(=O)c1CCN1CCC(c3noc4cc(F)ccc34)CC1)CCCC2` [risperidone, 3-[2-[4-(6-fluoro-1,2-benzisoxazol-3-yl)piperidino]ethyl]-2-methyl-6,7,8,9-tetrahydro-4H-pyrido-[1,2-a]pyrimidin-4-one], the “weight gain (in words)” value [1] is listed as “minimal” and the “effect on white blood cell count” value (white blood cell counts) is listed as “remains unaffected”.
